Values quoted from earlier work in patent US20110015368A1, “CD4-RECEPTOR-DERIVED PEPTIDES AND METHOD FOR THE PREPARATION THEREOF” (priority 2006, published 2011).

Test system: HIV
Conditions: Esté et al. 1997

Substance: dextran sulphate
- Inhibiting the infection of cells by HIV: capable of inhibiting the infection of cells by HIV

Substance: heparin
- Inhibiting the infection of cells by HIV: capable of inhibiting the infection of cells by HIV

Substance: chondroitin sulphate
- Inhibiting the infection of cells by HIV: not
